Assay in all cases: NCI tumour cell line growth inhibition, 48 h
For experiment [1], the system named is SK-MEL-28 melanoma.
For experiment [2], the system named is M14 melanoma.
The test system of experiment [3] is SNB-75 CNS.
Experiment [4] has as its system HCC-2998 colon.
In experiment [5] the test system is NCI-H226 lung.
Experiment [6] relates to MDA-MB-231 breast.
The test system of experiment [7] is IGROV1 ovarian.
Experiment [8] has as its system SF-539 CNS.
Experiment [9] deals with HOP-62 NSCLC.
The subject of experiment [10] is UO-31 renal.

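48-hour exposure; five concentrations; linearly interpolated endpoints. GI50 is the concentration that inhibits growth by half. Definition used: TGI = concentration required for complete inhibition of growth.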 Some results are limits rather than exact numbers.

Turning to `CC(=O)c1c(C)[nH]c(-c2nc3ccc(N4CCN(C)CC4)cc3[nH]2)c1-c1ccccc1`, the GI50 in experiment [1] is 3.38 µM; in [2] it was 1.1 µM; in [3], 0.0416 µM; in experiment [4], 1.54 µM; in experiment [5], 1.93 µM; in experiment [6], 0.728 µM. Moreover, the GI50 is 1.12 µM in experiment [7], 1.47 µM in [8], 1.01 µM in [9] and 0.374 µM in [10]. The TGI worked out at 19.9 µM in experiment [1]; 19.4 µM in experiment [2]; 0.937 µM in experiment [3]; 12.8 µM in experiment [4]; 49.5 µM in [5]; 22.8 µM in experiment [6]. Further, the TGI stood at 14.4 µM in experiment [7], 17.5 µM in experiment [8], 33.5 µM in [9] and 11.8 µM in [10].

Turning to `COC(=O)C=Cc1ccc2nncnc2c1` (mixture of isomers), the TGI is more than 100 µM in [1]; 42.6 µM in experiment [2]; 55.1 µM in experiment [3]; more than 100 µM in experiment [5]; more than 100 µM in experiment [6]; more than 100 µM in experiment [7]. Further, the TGI in [8], in experiment [9] and in experiment [10] was more than 100 µM in each case.

For the compound `c1cc2c(cn1)Nc1ccncc1S2`, the GI50 is more than 100 µM in experiment [1]; 32.6 µM in experiment [2]; 43.9 µM in experiment [3]; 49.8 µM in [4]; 49.2 µM in experiment [5]; 98.9 µM in [6]. Besides, the GI50 in [8] was 33.8 µM; in experiment [9], 14.9 µM; in experiment [10], 23.5 µM. Moreover, the TGI in experiment [1], in [2], in [3], in experiment [4], in experiment [5] and in experiment [6] was more than 100 µM in each case. Moreover, the results for the TGI in experiment [8], in experiment [9] and in experiment [10] were more than 100 µM, 57.4 µM and more than 100 µM, respectively.

As for `Cc1ccc(S(=O)(=O)NC(CN)C(=O)O)cc1` (stereo unspecified), the TGI in [1], in experiment [2], in [3], in [5], in experiment [6] and in experiment [7] was more than 100 µM each time. Besides, the TGI in [8], in [9] and in [10] was more than 100 µM throughout.

`O=C(COc1cccc(/C=C2\CSc3ccccc3C2=O)c1)Nc1nccs1`: the GI50 in experiment [1] was 3.75 µM; in [2], 1.88 µM; in [3], 1.13 µM; in experiment [4], 1.7 µM; in experiment [5], 13.1 µM; in experiment [6], 5.46 µM. In addition, the GI50 is 2.4 µM in [8], 11 µM in experiment [9] and 1.29 µM in experiment [10]. The TGI in experiment [1] came out at 12.4 µM; in experiment [2], 4.06 µM; in [3], 12.5 µM; in experiment [4], 3.13 µM; in experiment [5] it was 30.6 µM; in [6], 21.4 µM. Also, the values for the TGI in [8], in experiment [9] and in [10] were 13.3 µM, 23.2 µM and 2.64 µM, respectively.

As for `CN(C)C(=S)SCC(=O)Nc1ccccc1`, the TGI in [1], in experiment [2], in experiment [3], in experiment [4], in experiment [5] and in [6] was more than 100 µM throughout. Further, the TGI in experiment [7], in experiment [9] and in experiment [10] was more than 100 µM throughout.

For the compound `COC(=O)CSSCc1ccc([N+](=O)[O-])cc1`, the TGI in experiment [1] was determined as 36.7 µM; in experiment [2], 46.4 µM; in experiment [3] it was 55.2 µM; in [4], 41 µM; in [6] it was 46.8 µM; in experiment [7], 17.1 µM. The TGI amounted to 32.7 µM in [8], 42.4 µM in experiment [9] and 27.9 µM in experiment [10].

Consider `C#CCOc1ccc2ncnc(Nc3ccc(NC(=O)C=C)cc3)c2c1`, for which the GI50 is 23.6 µM in experiment [1]; 34.4 µM in [2]; more than 100 µM in [4]; more than 100 µM in experiment [5]; 29 µM in experiment [6]; 49.8 µM in experiment [7]. Also, the values for the GI50 in [8], in experiment [9] and in experiment [10] were 9.76 µM, more than 100 µM and 11.6 µM, respectively. The TGI in experiment [1], in experiment [2], in experiment [4], in experiment [5], in experiment [6] and in experiment [7] was more than 100 µM throughout. Moreover, the TGI was 39.6 µM in experiment [8], more than 100 µM in experiment [9] and 44.4 µM in experiment [10].

On to `C=C1C(=O)OC2/C=C(/C)C(OC(C)=O)C/C=C(\C)C(OC(=O)C3(C)OC3C)C(O)C12` (stereo unspecified), for which the TGI in experiment [1], in experiment [2], in experiment [3], in experiment [4], in [5] and in [6] was more than 100 µM throughout. In addition, the TGI in experiment [7], in [8] and in experiment [9] was more than 100 µM throughout.

Turning to `Nc1ncnc2c1ncn2C1OC(CO)C(O)C1N` (stereo unspecified), the TGI in experiment [1], in [2], in [3], in experiment [5], in experiment [6] and in [7] was more than 100 µM throughout. The TGI in [8], in [9] and in experiment [10] was more than 100 µM each time.

Turning to `CN(CCCNC(=O)CCOCCOCCOCCNC(=O)Cc1ccc2ccc3cccc4ccc1c2c34)CCCNc1cc(-c2ccc3ccccc3c2)nc2ccccc12`, the GI50 in [1] is 0.191 µM; in experiment [2], 0.591 µM; in [3], 0.51 µM; in experiment [4], 0.554 µM; in experiment [5], 3.94 µM; in experiment [6], 0.546 µM. Besides, the GI50 in experiment [8] is 0.526 µM; in experiment [9], 0.593 µM; in [10], 5.1 µM. Moreover, the TGI in experiment [1] amounted to 0.347 µM; in experiment [2], 1.14 µM; in [3], 0.994 µM; in experiment [4] it was 1.03 µM; in [5] it was 13.3 µM; in experiment [6], 1.06 µM. Moreover, the TGI in experiment [8] worked out at 0.99 µM; in experiment [9], 1.12 µM; in [10], 13.6 µM.

Source of the values: PubChem BioAssay (NCI).
